Laboratory results from the supplement of paper PMC10307832.

Legend:
Assay in all cases: relative viability (nuclei count vs DMSO), 5 days (fraction); higher = more cells survive
Bosutinib + Pemetrexed = compound: COc1cc(Nc2c(C#N)cnc3cc(OCCCN4CCN(C)CC4)c(OC)cc23)c(Cl)cc1Cl [Bosutinib] + Nc1nc2[nH]cc(CCc3ccc(C(=O)N[C@@H](CCC(=O)O)C(=O)O)cc3)c2c(=O)[nH]1 [Pemetrexed] (partner 0.2 µM)
Outline: (§1)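 Lung cancer cell lines in 1536-well plates got either a single drug or a fixed anchor-drug dose together with five library-drug doses (not always all listed) in √10 steps, by pin tool, on the day after seeding. Nuclei were counted after 5 days, and relative viability is the treated-to-vehicle ratio of nuclei counts. Values are medians of duplicate plates.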

Bosutinib + Tozasertib = compound: COc1cc(Nc2c(C#N)cnc3cc(OCCCN4CCN(C)CC4)c(OC)cc23)c(Cl)cc1Cl [Bosutinib] + Cc1cc(Nc2cc(N3CCN(C)CC3)nc(Sc3ccc(NC(=O)C4CC4)cc3)n2)n[nH]1 [Tozasertib] (partner 0.1 µM)
Outline: as §1

Bosutinib + Linsitinib = compound: COc1cc(Nc2c(C#N)cnc3cc(OCCCN4CCN(C)CC4)c(OC)cc23)c(Cl)cc1Cl [Bosutinib] + C[C@]1(O)C[C@@H](c2nc(-c3ccc4ccc(-c5ccccc5)nc4c3)c3c(N)nccn32)C1 [Linsitinib] (partner 1 µM)
Outline: as §1

Bosutinib + Phenformin = compound: COc1cc(Nc2c(C#N)cnc3cc(OCCCN4CCN(C)CC4)c(OC)cc23)c(Cl)cc1Cl [Bosutinib] + N=C(N)NC(=N)NCCc1ccccc1 [Phenformin] (partner 250 µM)
Outline: as §1

Bosutinib + Bortezomib = compound: COc1cc(Nc2c(C#N)cnc3cc(OCCCN4CCN(C)CC4)c(OC)cc23)c(Cl)cc1Cl [Bosutinib] + CC(C)C[C@H](NC(=O)[C@H](Cc1ccccc1)NC(=O)c1cnccn1)B(O)O [Bortezomib] (partner 0.002 µM)
Outline: as §1

Row | Cell Line | relative viability (Bosutinib + Pemetrexed; first compound 0.01 µM) | relative viability (Bosutinib + Pemetrexed; first compound 0.03162 µM) | relative viability (Bosutinib + Pemetrexed; first compound 0.1 µM) | relative viability (Bosutinib + Pemetrexed; first compound 1 µM) | relative viability (Bosutinib + Tozasertib; first compound 0.01 µM) | relative viability (Bosutinib + Tozasertib; first compound 0.03162 µM) | relative viability (Bosutinib + Tozasertib; first compound 0.1 µM) | relative viability (Bosutinib + Tozasertib; first compound 1 µM) | relative viability (Bosutinib + Linsitinib; first compound 0.01 µM) | relative viability (Bosutinib + Linsitinib; first compound 0.03162 µM) | relative viability (Bosutinib + Linsitinib; first compound 0.1 µM) | relative viability (Bosutinib + Linsitinib; first compound 1 µM) | relative viability (Bosutinib + Phenformin; first compound 0.01 µM) | relative viability (Bosutinib + Phenformin; first compound 0.03162 µM) | relative viability (Bosutinib + Phenformin; first compound 0.1 µM) | relative viability (Bosutinib + Phenformin; first compound 1 µM) | relative viability (Bosutinib + Bortezomib; first compound 0.01 µM) | relative viability (Bosutinib + Bortezomib; first compound 0.03162 µM) | relative viability (Bosutinib + Bortezomib; first compound 0.1 µM) | relative viability (Bosutinib + Bortezomib; first compound 1 µM)
1 | NCI-H1993 | 0.506 | 0.663 | 0.611 | 0.686 | 0.549 | 0.538 | 0.564 | 0.496 | 0.749 | 0.759 | 0.645 | 0.762 | 0.513 | 0.511 | 0.492 | 0.59 | 1.11 | 1.26 | 1.08 | 0.949
2 | NCI-H460 | 0.0612 | 0.0671 | 0.0657 | 0.073 | 0.555 | 0.545 | 0.479 | 0.112 | 0.753 | 0.835 | 0.668 | 0.338 | 0.557 | 0.492 | 0.491 | 0.356 | 1.17 | 1.04 | 1.01 | 0.91
3 | NCI-H1975 | 0.287 | 0.289 | 0.292 | 0.281 | 0.739 | 0.871 | 0.687 | 0.583 | 0.932 | 0.833 | 0.952 | 0.722 | 0.401 | 0.447 | 0.437 | 0.403 | 0.432 | 0.399 | 0.424 | 0.388
4 | RERF-LC-KJ | 0.504 | 0.495 | 0.492 | 0.478 | 0.58 | 0.436 | 0.491 | 0.599 | 0.893 | 0.885 | 0.845 | 0.838 | 0.407 | 0.427 | 0.42 | 0.387 | 1.08 | 1.08 | 1.07 | 1.05
5 | NCI-H322M | 0.579 | 0.594 | 0.6 | 0.521 | 0.472 | 0.46 | 0.497 | 0.315 | 0.964 | 0.954 | 1.03 | 0.789 | 0.865 | 0.777 | 0.846 | 0.449 | 1.23 | 1.14 | 1.35 | 1.22
6 | NCI-H1651 | 0.529 | 0.678 | 0.643 | 0.569 | 0.586 | 0.742 | 0.612 | 0.624 | 0.911 | 1.02 | 0.939 | 0.724 | 0.32 | 0.322 | 0.331 | 0.357 | 0.914 | 0.942 | 0.994 | 0.978
7 | HARA | 0.237 | 0.27 | 0.244 | 0.264 | 0.119 | 0.149 | 0.104 | 0.125 | 1.01 | 0.913 | 0.892 | 0.629 | 0.522 | 0.431 | 0.376 | 0.45 | 1.15 | 1.13 | 1.1 | 1.18
8 | H3255 | 0.555 | 0.596 | 0.621 | 0.446 | 0.696 | 0.645 | 0.719 | 0.326 | 0.94 | 0.974 | 0.994 | 0.45 | 0.361 | 0.359 | 0.356 | 0.309 | 0.659 | 0.774 | 0.85 | 0.493
9 | NCI-H441 | 0.242 | 0.272 | 0.264 | 0.251 | 0.673 | 0.589 | 0.599 | 0.823 | 0.583 | 0.504 | 0.58 | 0.543 | 0.946 | 0.869 | 0.821 | 0.657 | 0.579 | 0.726 | 0.44 | 0.806
10 | CAL-12T | 1.09 | 1.26 | 1.29 | 1.18 | 0.32 | 0.316 | 0.322 | 0.318 | 0.739 | 0.932 | 0.891 | 0.71 | 0.567 | 0.584 | 0.52 | 0.382 | 0.888 | 1.15 | 1.18 | 1.01
11 | NCI-H1437 | 0.317 | 0.377 | 0.311 | 0.29 | 0.401 | 0.426 | 0.407 | 0.344 | 1.06 | 1.05 | 0.962 | 0.781 | 0.341 | 0.305 | 0.335 | 0.287 | 0.599 | 0.485 | 0.464 | 0.436
12 | HOP-62 | 0.297 | 0.414 | 0.317 | 0.317 | 0.394 | 0.411 | 0.35 | 0.381 | 0.881 | 0.949 | 1.01 | 1.11 | 0.699 | 0.706 | 0.65 | 0.741 | 0.839 | 0.755 | 0.548 | 0.904
13 | EPLC-272H | 0.324 | 0.382 | 0.323 | 0.319 | 0.307 | 0.339 | 0.347 | 0.351 | 1.18 | 1.25 | 1.31 | 1.14 | 0.275 | 0.353 | 0.331 | 0.335 | 0.76 | 0.817 | 0.911 | 0.9
14 | COR-L 105 | 1.22 | 1.1 | 0.979 | 0.777 | 0.344 | 0.371 | 0.325 | 0.308 | 0.948 | 1.21 | 0.857 | 0.59 | 0.55 | 0.522 | 0.519 | 0.357 | 0.778 | 0.9 | 0.705 | 0.446
15 | HCC-366 | 0.167 | 0.158 | 0.162 | 0.166 | 0.161 | 0.142 | 0.104 | 0.0934 | 0.708 | 0.604 | 0.457 | 0.0753 | 0.63 | 0.61 | 0.555 | 0.53 | 1.11 | 1.01 | 1.06 | 0.989
